Results reported in patent US6544542B1, “Fat emulsions for inhalational administration” (Nippon Shinyaku Co., Ltd., priority 1998, dated 2003).

Assay: Test Example 7: influence of the solubilization-effective surfactant concentration on nebulizer sprayability
Format: physicochemical

Row | Substance | nebulizer sprayability, CA | nebulizer sprayability, Dexamethasone palmitate | nebulizer sprayability, Guaiazulene
1 | Tween-80 | Infeasible | Infeasible | Infeasible
2 | Triton X100 | Infeasible | – | –
